Data published in patent US20060287528A1, “Novel crystalline forms of a phosphoric acid salt of a dipeptidyl peptidase-iv inhibitor” (priority 2003, published 2006).

Tests used:
[1] = Solid-state stability and interconversion of the crystalline forms; assay type: physicochemical; conditions: for temperature range in which the polymorph is the stable form (enantiotropic transition temperature): Form I / Form III enantiotropic pair, transition about 34° C.
Solubility in water = assay type: physicochemical

temperature range in which the polymorph is the stable form (enantiotropic transition temperature) [1]	time for conversion to anhydrate Form I or Form III or mixtures thereof ([1]; at about 45° C., form is metastable)	solubility (Solubility in water) [mg/mL]	SMILES
below 34 °C	–	–	N[C@@H](CC(=O)N1CCn2c(nnc2C(F)(F)F)C1)Cc1cc(F)c(F)cc1F [anhydrate Form III]
–	about 2 h	–	N[C@@H](CC(=O)N1CCn2c(nnc2C(F)(F)F)C1)Cc1cc(F)c(F)cc1F [desolvated anhydrate Form II]
above 34 °C	–	> 120	N[C@@H](CC(=O)N1CCn2c(nnc2C(F)(F)F)C1)Cc1cc(F)c(F)cc1F [anhydrate Form I]
